Assay results reported in ChEMBL document CHEMBL1129522, “Inhibitors of acyl-CoA:cholesterol O-acyltransferase. 17. Structure-activity relationships of several series of compounds derived from N-chlorosulfonyl isocyanate” (J Med Chem, 1996).
pIC50: −log10 of the molar value. Several values for one entry are separate records, joined by “and”; a condition that tells them apart may be missing. Identical values can stand only once.

Assays:
[1] = molecular target: T1, Sterol O-acyltransferase 1 (Rattus norvegicus, UniProt O70536); test: In vitro inhibitory activity against acyl coenzyme A:cholesterol acyltransferase 1 in microsomes of rat liver
T1 sequence (O70536 whole entry): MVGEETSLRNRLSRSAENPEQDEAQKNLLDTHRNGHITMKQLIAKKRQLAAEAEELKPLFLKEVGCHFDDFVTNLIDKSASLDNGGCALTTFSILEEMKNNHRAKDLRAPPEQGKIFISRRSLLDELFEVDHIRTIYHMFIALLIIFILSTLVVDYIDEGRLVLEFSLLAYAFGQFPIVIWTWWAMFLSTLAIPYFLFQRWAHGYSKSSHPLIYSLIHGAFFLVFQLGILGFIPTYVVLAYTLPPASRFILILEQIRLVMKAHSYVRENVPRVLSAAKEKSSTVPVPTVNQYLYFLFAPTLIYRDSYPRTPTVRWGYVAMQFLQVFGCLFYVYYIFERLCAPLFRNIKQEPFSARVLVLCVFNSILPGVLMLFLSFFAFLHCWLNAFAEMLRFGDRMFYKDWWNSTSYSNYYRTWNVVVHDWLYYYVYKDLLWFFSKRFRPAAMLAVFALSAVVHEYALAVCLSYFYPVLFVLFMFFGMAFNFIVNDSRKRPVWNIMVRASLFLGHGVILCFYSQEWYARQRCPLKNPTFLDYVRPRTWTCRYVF

[2] = molecular target: T2, Sterol O-acyltransferase 1 (Rattus norvegicus) (UniProt O70536); test: Acute in vivo activity was measured by the total plasma cholesterol concentration levels(TC) at dose 3 mg/kg; type: functional, organism-based; parameters: dose 3 mg/kg
T2 sequence (whole entry): T1 sequence (O70536 whole entry)

Rattus norvegicus = test: Acute in vivo activity measured by total plasma cholesterol concentration levels (TC) at 30 mg/kg dose; type: functional

Delta TC [2]	Structure (SMILES)	pIC50 [1]	Delta TC (Rattus norvegicus)
–	Cc1cc(C(C)(C)C)c(OC(=O)NS(=O)(=O)N(C)CCc2ccccn2)c(C(C)(C)C)c1 [listing 1 of 2 here]	4.51	–
–	CCCCN(CCCC)S(=O)(=O)NC(=O)Oc1c(C(C)C)cccc1C(C)C [listing 1 of 2 here]	5.72	–
-5%	CC(C)c1cccc(C(C)C)c1NS(=O)(=O)NC(=O)NC(c1ccccc1)c1ccccc1	4.52	–
–	CCCCN(CCCC)S(=O)(=O)NC(=O)Oc1c(C(C)(C)C)cc(C)cc1C(C)(C)C	5.49	–
–	CN(C(=O)Oc1c(C(C)(C)C)cccc1C(C)(C)C)S(=O)(=O)NC(c1ccccc1)c1ccccc1	5.34	–
–	CC(C)c1cccc(C(C)C)c1NC(=O)NS(=O)(=O)N1CCCCC1	4.77	–
–	CC(C)c1cccc(C(C)C)c1NS(=O)(=O)NC(=O)N(Cc1ccccc1)Cc1ccccc1	4.80	–
–	CC(C)c1cccc(C(C)C)c1OS(=O)(=O)NC(=O)OC1[C@H](C(C)C)CCC[C@H]1C(C)C (relative stereo)	5.24	-35%
–	CCCCCCCCCCCCOS(=O)(=O)NC(=O)Nc1c(C(C)C)cccc1C(C)C	5.17	–
–	CC(C)c1cccc(C(C)C)c1OC(=O)NS(=O)(=O)Oc1c(C(C)C)cc(O)cc1C(C)C	< 4.30	-15%
-29%	CCCCN(CC)S(=O)(=O)NC(=O)Nc1c(C(C)C)cccc1C(C)C	5.92	–
–	CCCCCCCCCCCCOS(=O)(=O)NC(=O)Sc1c(C(C)C)cccc1C(C)C	4.32	-9%
–	COc1cc(C(C)(C)C)c(OC(=O)[N-]S(=O)(=O)Oc2c(C(C)C)cccc2C(C)C)c(C(C)(C)C)c1.[Na+]	5.00	-60%
–	CCCCN(CCCC)S(=O)(=O)N(C)C(=O)Nc1c(C(C)C)cccc1C(C)C	< 5.30	–
–	COc1cccc(OC)c1OC(=O)NS(=O)(=O)Oc1c(C(C)C)cccc1C(C)C [listing 1 of 2 here]	< 4.30	-61%
–	CC(C)(C)c1cccc(C(C)(C)C)c1OC(=O)NS(=O)(=O)Oc1c(C(C)(C)C)cccc1C(C)(C)C	4.52	-18%
–	CCOC(=O)NS(=O)(=O)Oc1c(C(C)C)cccc1C(C)C	< 4.30	-14%
–	Cc1cc(C(C)(C)C)c(OC(=O)NS(=O)(=O)N(CC2CCCO2)CC2CCCO2)c(C(C)(C)C)c1 (configuration not stated)	4.68	–
–	COc1cccc(OC)c1OC(=O)[N-]S(=O)(=O)Oc1c(C(C)C)cccc1C(C)C.[Na+]	4.32	-49%
–	COc1cc(C(C)(C)C)c(OC(=O)NS(=O)(=O)Oc2c(C(C)C)cccc2C(C)C)c(C(C)(C)C)c1	5.32	-72%
-17%	CC(C)c1cccc(C(C)C)c1NC(=O)NS(=O)(=O)N1CCC(c2ccccc2)CC1	4.98	–
–	Cc1cc(C(C)(C)C)c(OC(=O)NS(=O)(=O)N(C(C)C)C(C)C)c(C(C)(C)C)c1	5.49	–
–	COC(=O)NS(=O)(=O)Oc1c(C(C)C)cccc1C(C)C	< 4.00	–

Delta TC [2]	Structure (SMILES)	pIC50 [1]	Delta TC (Rattus norvegicus)
–	CCCCN(CCCC)S(=O)(=O)NC(=O)Oc1c(C(C)C)cccc1C(C)C [listing 2 of 2 here]	5.72	–
–	CC(=O)c1cc(C(C)C)c(OC(=O)NS(=O)(=O)Oc2c(C(C)C)cccc2C(C)C)c(C(C)C)c1	4.38	-16%
–	CC(C)c1cccc(C(C)C)c1OC(=O)[N-]S(=O)(=O)Oc1c(C(C)C)cccc1C(C)C.[Na+]	–	-74%
–	CC(C)c1cccc(C(C)C)c1OC(=O)NS(=O)(=O)N1CCN(C)CC1	< 4.00	–
–	CCCCCCCCN(CCCCCCCC)S(=O)(=O)NC(=O)Oc1c(C(C)(C)C)cc(C)cc1C(C)(C)C	5.57	–
-18%	CCCCCCCCCCCCCCCCCCN(C)S(=O)(=O)NC(=O)Nc1c(C(C)C)cccc1C(C)C	5.72	–
–	CC(C)c1cccc(C(C)C)c1OS(=O)(=O)NC(=O)Oc1ccc(Cl)cc1	4.01	-8%
–	CCOC(=O)[N-]S(=O)(=O)Oc1c(C(C)C)cccc1C(C)C.[Na+]	< 4.30	17%
–	CCCCCCCCCCN(CCCCCCCCCC)S(=O)(=O)NC(=O)Oc1c(C(C)(C)C)cc(C)cc1C(C)(C)C	4.05	–
–	CCCCCCNS(=O)(=O)NC(=O)Nc1c(C(C)C)cccc1C(C)C	5.09	–
–	CC(C)c1cccc(C(C)C)c1OS(=O)(=O)NC(=O)Sc1c(C(C)C)cccc1C(C)C	5.06	-17%
–	CC(C)c1cccc(C(C)C)c1NC(=O)NS(=O)(=O)N(CCCN(C)C)CCCN(C)C	4.26	–
–	Cc1cccc(C)c1OC(=O)NS(=O)(=O)Oc1c(C(C)C)cccc1C(C)C	< 4.30	-37%
–	CC(C)c1cccc(C(C)C)c1OS(=O)(=O)NC(=O)Oc1ccc(F)cc1F	< 4.30	-5%
–	CCCCCCCCCCCCOC(=O)NS(=O)(=O)Nc1c(C(C)C)cccc1C(C)C	4.48	–
–	C=CCN(CC)S(=O)(=O)NC(=O)Nc1c(C(C)C)cccc1C(C)C	5.68	–
–	CC(C)c1cccc(C(C)C)c1OC(=O)NS(=O)(=O)N1CCCCC1	< 4.00	–
–	CC(C)c1cc([N+](=O)[O-])cc(C(C)C)c1OC(=O)NS(=O)(=O)Oc1c(C(C)C)cccc1C(C)C	< 4.30	18%
–	Cc1cccc(C(C)(C)C)c1OC(=O)NS(=O)(=O)Oc1c(C(C)C)cccc1C(C)C	4.31	-15%
–	CC(C)c1cc(Br)cc(C(C)C)c1OC(=O)NS(=O)(=O)Oc1c(C(C)C)cccc1C(C)C	4.51	-29%
-8%	CCCCCCOS(=O)(=O)NC(=O)Nc1c(C(C)C)cccc1C(C)C	4.57	–
–	CC(C)c1cccc(C(C)C)c1OC(=O)NS(=O)(=O)Oc1ccccc1	< 4.30	-26%
2%	C=CCN(CC=C)S(=O)(=O)NC(=O)Nc1c(C(C)C)cccc1C(C)C	5.57	–

Delta TC [2]	Structure (SMILES)	pIC50 [1]	Delta TC (Rattus norvegicus)
–	CCCCCCCCCCCCOS(=O)(=O)[N-]C(=O)Nc1c(C(C)C)cccc1C(C)C.[Na+]	5.30	-60%
–	Cc1cc(C)c(C)c(OC(=O)NS(=O)(=O)Oc2c(C(C)C)cccc2C(C)C)c1C	< 4.30	-17%
–	CCN(CC)S(=O)(=O)NC(=O)Nc1c(C(C)C)cccc1C(C)C	5.60	–
–	CCCCN(CCCC)S(=O)(=O)NC(=O)Nc1c(C(C)C)cccc1C(C)C [listing 1 of 2 here]	6.44	–
–	COc1cc(OC)c(OC(=O)NS(=O)(=O)Oc2c(C(C)C)cccc2C(C)C)c(OC)c1	< 4.60	-5%
–	CC(C)c1cccc(C(C)C)c1OS(=O)(=O)NC(=O)Oc1c(F)c(F)c(F)c(F)c1F	4.18	-5%
-17%	CCCCCCCCCCN(CCCCCCCCCC)S(=O)(=O)NC(=O)Nc1c(C(C)C)cccc1C(C)C	6.14	–
–	CC(C)c1cccc(C(C)C)c1OC(=O)NS(=O)(=O)N1CCOCC1	< 4.00	–
–	CC(C)c1cccc(C(C)C)c1OS(=O)(=O)NC(=O)Oc1c(C(C)(C)C)cc(CN(C)C)cc1C(C)(C)C	4.66	2%
–	CC(C)c1cccc(C(C)C)c1OS(=O)(=O)NC(=O)OC12CC3CC(CC(C3)C1)C2	4.89	-10%
–	CC(C)c1cccc(C(C)C)c1NC(=O)NS(=O)(=O)N(C)C	5.41	–
-48%	CCCCCCCCCCC(C)OS(=O)(=O)NC(=O)Nc1c(C(C)C)cccc1C(C)C (configuration not stated)	–	–
–	CC(C)c1cccc(C(C)C)c1NC(=O)NS(=O)(=O)N1CCCC1	4.82	–
–	CCCCCCN(CCCCCC)S(=O)(=O)NC(=O)Oc1c(C(C)(C)C)cc(C)cc1C(C)(C)C	5.37	–
–	CC(C)c1cccc(C(C)C)c1NS(=O)(=O)NC(=O)Oc1c(-c2ccccc2)cccc1-c1ccccc1	< 4.60	–
–	CCCCCCCCCCCCOC(=O)NS(=O)(=O)Nc1c(OC)cc(OC)cc1OC	4.52	–
–	CCCCCN(CCCCC)S(=O)(=O)NC(=O)Oc1c(C(C)(C)C)cc(C)cc1C(C)(C)C	5.66	–
–	Cc1cc(C(C)(C)C)c(OC(=O)NS(=O)(=O)N(C)CCc2ccccn2)c(C(C)(C)C)c1 [listing 2 of 2 here]	4.51	–
-37%	CCCCN(C)S(=O)(=O)NC(=O)Nc1c(C(C)C)cccc1C(C)C	5.64	–
–	CCCCN(CCCC)S(=O)(=O)NC(=O)Nc1c(C(C)C)cccc1C(C)C [listing 2 of 2 here]	6.28	–
–	CCCCCCCCCCOS(=O)(=O)NC(=O)Nc1c(C(C)C)cccc1C(C)C	< 5.00	–
–	CC(C)NS(=O)(=O)NC(=O)Nc1c(C(C)C)cccc1C(C)C	4.74	–
–	COC(=O)NS(=O)(=O)Nc1c(C(C)C)cccc1C(C)C	< 4.00	–

Structure (SMILES)	Delta TC [2]	pIC50 [1]	Delta TC (Rattus norvegicus)
COc1cccc(OC)c1OC(=O)NS(=O)(=O)Oc1c(C(C)C)cccc1C(C)C [listing 2 of 2 here]	-12% and -4%	–	–
CCCCCCNS(=O)(=O)NC(=O)Oc1c(C(C)(C)C)cc(C)cc1C(C)(C)C	-10%	4.71	–
COc1cc(C(C)(C)C)c(OC(=O)NS(=O)(=O)NCC(c2ccccc2)c2ccccc2)c(C(C)(C)C)c1	-15%	4.09	–
CCCCCCNS(=O)(=O)NC(=O)Oc1c(C(C)C)cccc1C(C)C	-12%	4.68	–
CC(C)c1cccc(C(C)C)c1OC(=O)NS(=O)(=O)N1CCc2ccccc21	-31%	4.37	–
CC(C)c1cccc(C(C)C)c1OC(=O)NS(=O)(=O)N(Cc1ccccc1)Cc1ccccc1	-17%	4.70	–
CC(C)c1cccc(C(C)C)c1OC(=O)NS(=O)(=O)N1CCCC1	-4%	4.28	–
CCCCCCCCN(C)S(=O)(=O)NC(=O)Oc1c(C(C)(C)C)cc(C)cc1C(C)(C)C	1%	4.74	–
